Measurements: the NIST ThermoML archive (doi:10.1016/j.jct.2013.01.012)

Assays:
[1] = mn = molality of the nth substance listed, in mol/kg; details: 101 kPa, Liquid; for speed of sound: Sing-around technique in a fixed-path interferometer; for mass density: Vibrating tube method
[2] = refractive index (Na D-line) (dimensionless); mn = molality of the nth substance listed, in mol/kg; details: 101 kPa, Liquid, Standard Abbe refractometry

O=P([O-])(O)O.[Li+] [lithium dihydrogen phosphate] + O
Details | mass density, 298.15 K [kg/m3] | mass density, 303.15 K [kg/m3] | mass density, 308.15 K [kg/m3] | refractive index, 298.15 K | refractive index, 303.15 K | refractive index, 308.15 K | speed of sound, 298.15 K [m/s] | speed of sound, 303.15 K [m/s] | speed of sound, 308.15 K [m/s]
[1], m1 = 0.1 | 1004.55 | 1003.21 | 1001.59 | – | – | – | 1506.5 | 1518.5 | 1528.8
[1], m1 = 0.3 | 1018.97 | 1017.71 | 1016.05 | – | – | – | 1525.5 | 1536.8 | 1546.5
[1], m1 = 0.5 | 1033.8 | 1032.57 | 1031.29 | – | – | – | 1544.1 | 1555 | 1564.5
[1], m1 = 0.7 | 1048.96 | 1048.1 | 1046.58 | – | – | – | 1569.2 | 1573.7 | 1582.6
[1], m1 = 0.9 | 1064.91 | 1063.79 | 1055.48 | – | – | – | 1582.6 | 1593 | 1593.1
[2], m1 = 0.1 | – | – | – | 1.3342 | 1.3332 | 1.3327 | – | – | –
[2], m1 = 0.3 | – | – | – | 1.3365 | 1.3363 | 1.3355 | – | – | –
[2], m1 = 0.5 | – | – | – | 1.3394 | 1.339 | 1.3387 | – | – | –
[2], m1 = 0.7 | – | – | – | 1.3421 | 1.3418 | 1.3414 | – | – | –
[2], m1 = 0.9 | – | – | – | 1.3452 | 1.3448 | 1.3444 | – | – | –

O=P([O-])(O)O.[K+] [monopotassium phosphate] + O
Details | mass density, [1] [kg/m3] | refractive index, [2] | speed of sound, [1] [m/s]
298.15 K, m1 = 0.1 | 1007.01 | 1.3343 | 1506.5
298.15 K, m1 = 0.3 | 1026.44 | 1.3374 | 1524.5
298.15 K, m1 = 0.5 | 1046.68 | 1.3401 | 1542.1
298.15 K, m1 = 0.7 | 1066.58 | 1.3435 | –
298.15 K, m1 = 0.9 | 1088.28 | 1.3466 | 1577.6
303.15 K, m1 = 0.1 | 1005.58 | 1.3336 | 1518.4
303.15 K, m1 = 0.3 | 1025.15 | 1.3368 | 1536
303.15 K, m1 = 0.5 | 1045.29 | 1.3397 | 1553.2
303.15 K, m1 = 0.7 | 1065.65 | 1.3427 | 1570.1
303.15 K, m1 = 0.9 | 1087.42 | 1.3463 | 1587.9
308.15 K, m1 = 0.1 | 1004.16 | 1.333 | 1528.8
308.15 K, m1 = 0.3 | 1023.58 | 1.3361 | 1545.8
308.15 K, m1 = 0.5 | 1044.55 | 1.3392 | 1563.1
308.15 K, m1 = 0.7 | 1065.08 | 1.3423 | 1580
308.15 K, m1 = 0.9 | 1086.5 | 1.3455 | 1596.6

O=P([O-])([O-])O.[Na+].[Na+] [disodium hydrogen phosphate] + O
Details | mass density, 298.15 K [kg/m3] | mass density, 303.15 K [kg/m3] | mass density, 308.15 K [kg/m3] | refractive index, 298.15 K | refractive index, 303.15 K | refractive index, 308.15 K | speed of sound, 298.15 K [m/s] | speed of sound, 303.15 K [m/s] | speed of sound, 308.15 K [m/s]
[1], m1 = 0.1 | 1010.86 | 1009.51 | 1008.19 | – | – | – | 1514.6 | 1526.5 | 1537
[1], m1 = 0.3 | 1038.69 | 1037 | 1035.61 | – | – | – | 1549.5 | 1560.1 | 1569.8
[1], m1 = 0.5 | 1066.76 | 1069.09 | 1051.41 | – | – | – | 1583.5 | 1598.6 | 1588.7
[1], m1 = 0.7 | 1096.95 | 1095.37 | 1099.82 | – | – | – | 1621.3 | 1630 | 1646.2
[1], m1 = 0.9 | 1129.62 | 1128.52 | 1162.21 | – | – | – | 1663.2 | 1672.3 | 1685.8
[2], m1 = 0.1 | – | – | – | 1.3354 | 1.3347 | 1.3344 | – | – | –
[2], m1 = 0.3 | – | – | – | 1.3408 | 1.3404 | 1.3398 | – | – | –
[2], m1 = 0.5 | – | – | – | 1.3457 | 1.3456 | 1.3448 | – | – | –
[2], m1 = 0.7 | – | – | – | 1.3512 | 1.3507 | 1.3499 | – | – | –
[2], m1 = 0.9 | – | – | – | 1.3562 | 1.3557 | 1.3552 | – | – | –

O=P(O)(O)O [phosphoric acid] + O
Details | mass density, 298.15 K [kg/m3] | mass density, 303.15 K [kg/m3] | mass density, 308.15 K [kg/m3] | refractive index, 298.15 K | refractive index, 303.15 K | refractive index, 308.15 K | speed of sound, 298.15 K [m/s] | speed of sound, 303.15 K [m/s] | speed of sound, 308.15 K [m/s]
[1], m1 = 0.1 | 1002.05 | 1000.62 | 998.962 | – | – | – | 1497.1 | 1509.2 | 1519.7
[1], m1 = 0.3 | 1011.37 | 1009.93 | 1008.27 | – | – | – | 1498.3 | 1510.2 | 1520.4
[1], m1 = 0.5 | 1021.09 | 1019.94 | 1018.07 | – | – | – | 1500 | 1511.6 | 1521.6
[1], m1 = 0.7 | 1030.49 | 1029.49 | 1028.12 | – | – | – | 1502 | 1513.2 | 1523
[1], m1 = 0.9 | 1040.62 | 1039.05 | 1037.8 | – | – | – | 1504.2 | 1515.1 | 1524.6
[2], m1 = 0.1 | – | – | – | 1.3334 | 1.3329 | 1.3323 | – | – | –
[2], m1 = 0.3 | – | – | – | 1.335 | 1.3345 | 1.3339 | – | – | –
[2], m1 = 0.5 | – | – | – | 1.3366 | 1.336 | 1.3356 | – | – | –
[2], m1 = 0.7 | – | – | – | 1.3381 | 1.3376 | 1.3371 | – | – | –
[2], m1 = 0.9 | – | – | – | 1.3397 | 1.3393 | 1.3388 | – | – | –
